System: human skin
Assay: Human skin safety test: repeated insult patch test
Type: in vivo
Details: for Number of subjects showing reaction ±: grade ±
Description: In order to confirm that the extract of seed-removed milk thistle flowers according to the present invention is safe for human skin, a skin safety verification test was performed. To this end, a repeated insult patch test was conducted. Nourishing creams containing the seed-removed milk thistle extract of Example 1 in amounts of 0.1%, 0.5% and 1%, respectively, were prepared. Specifically, a water phase containing purified water, triethanolamine and propylene glycol was dissolved by heating to 70° C. and then emulsified by adding a solution obtained by dissolving beeswax, liquid paraffin, an oil component, an emulsifier and a preservative by heating to 70° C. After completion of emulsification, the solution was cooled to 45° C., and the seed-removed milk thistle flower extract was added thereto in amounts of 0.1%, 0.5% and 1% and dispersed therein, followed by cooling to 30° C. As the content of the extract of seed-removed milk thistle flowers was increased from 0.1% to 0.5% and 1%, the content of liquid paraffin was decreased from 9.91% to 9.51% and 9.01%, respectively, thereby preparing nourishing creams. Using the nourishing creams prepared as described above, a repeated insult patch test was conducted on the upper arm areas of 30 healthy adults every other day for a total of 9 times for 24 hours per time to determine whether the extract of seed-removed milk thistle flowers irritated the skin. The patch test was performed using a Finn chamber (Epitest Ltd., Finland). 15 μl of each of the external skin preparations was dropped into the chamber, and then the patch test was performed. Average degree of reaction=[[(reaction index×degree of reaction)/(total number of subjects×highest score (4)]×100]÷number of tests (9) [Equation 2] In the degree of reaction, ± represents a score of 1 point, […], and ++ represents a score of 4. When the average degree of reaction is less than 3, the corresponding composition is determined to be safe.

CC(C)=CCC/C(C)=C/CC/C(C)=C/CC/C=C(\C)CC/C=C(\C)CCC=C(C)C [Control (squalene), squalene]
Average degree of reaction (30 healthy adults, upper arm, 9 patch tests of 24 hours, Equation 2, less than 3 = safe): 0.18
Number of subjects showing reaction ± (Week 1, 1st test): 1
Number of subjects showing reaction ± (Week 1, 2nd test): 1

— patent US12409200B2, “Composition for treating hair loss or promoting hair growth comprising milk thistle flower extract as an active ingredient” (BioSpectrum, Inc., priority 2021, dated 2025)
